Here are results for nine compounds from ChEMBL document CHEMBL1155039, “Synthetic antimicrobial peptidomimetics with therapeutic potential” (J Med Chem, 2008).

Values after ≈ are worked out from the molar mass of the structure shown. Values joined by “and” are separate entries in the source; they are usually repeats but may differ in a detail not shown here. Equal entries are not always repeated. Active and inactive are the calls of the source. No cut-off for these calls is given here.

In data set [1] the test system is Staphylococcus aureus. Put plainly: Antibacterial activity against Staphylococcus aureus ATCC 25923. The format is functional.
The subject of data set [2] is Staphylococcus aureus. Put plainly: Antibacterial activity against glycopeptide intermediate-resistant Staphylococcus aureus CCUG 43316. The format is functional.
Another data set deals with Pseudomonas aeruginosa. The data set can be described thus: Antibacterial activity against Pseudomonas aeruginosa ATCC 27853. The format is functional.
Data set [3] has as its system Staphylococcus aureus. The data set can be described thus: Antibacterial activity against methicillin-resistant Staphylococcus aureus ATCC 33591. The format is functional.
Data set [4] is described as follows: Toxicity in human erythrocytes assessed as hemolysis upto 1000 ug/mL. The format is cell-based. The conditions noted are these: erythrocyte.
Data set [5] concerns Escherichia coli. Put plainly: Antibacterial activity against Escherichia coli ATCC 25922. The format is functional.
Data set [6] concerns Staphylococcus epidermidis. The data set can be described thus: Antibacterial activity against methicillin-resistant Staphylococcus epidermidis ATCC 27626. The format is functional.
Data set [7] is described as follows: Toxicity in human erythrocytes assessed as hemolysis. The format is cell-based, Erythrocyte.
Data set [8] relates to Escherichia coli. Put plainly: Antibacterial activity against Escherichia coli ATCC 25922 upto 150 ug/mL. The format is functional, organism-based.
In data set [9] the test system is Staphylococcus aureus. The data set can be described thus: Antibacterial activity against Staphylococcus aureus ATCC 25923 at 8 times MIC after 30 mins. The format is functional.
A further data set concerns Plasma. The data set can be described thus: Stability assessed as degradation in human plasma upto 4 days. The settings on record: 96 h. The format is ADME, cell-free.
Data set [10] concerns Escherichia coli. The data set can be described thus: Effect on inner membrane destabilization in Escherichia coli ML-35p at 256 ug/mL. The format is functional, organism-based.
The subject of data set [11] is Escherichia coli. Put plainly: Effect on outer membrane destabilization in Escherichia coli ML-35p at 128 ug/mL. The format is functional, organism-based.
Data set [12] has as its system Escherichia coli. The data set can be described thus: Antibacterial activity against Escherichia coli ML-35p. The format is functional.
A short description of data set [13]: Effect on permeability assessed as calcein release from 1-palmitoyl-2-oleoyl-sn-glycero-3-phosphoglycerol vesicle. The format is physicochemical.
Data set [14] in a line: Stability assessed as half life in human plasma. The format is ADME, cell-free.

By MIC is commonly meant the lowest concentration found to suppress growth. Take `CC(C)(C)c1cc(C(C)(C)C)c2[nH]c(C(C)(C)C)c(C[C@H](NC(=O)[C@@H](N)CCCCN)C(=O)N[C@@H](CCCNC(=N)N)C(N)=O)c2c1`: the MIC against Staphylococcus aureus [1] worked out at 23 µM (≈ 15.1 µg/mL); in the data set on Staphylococcus aureus [2] it was 46 µM (≈ 30.2 µg/mL); in the data set on Pseudomonas aeruginosa it was 76 µM (≈ 49.9 µg/mL); in the data set with Staphylococcus aureus [3], 23 µM (≈ 15.1 µg/mL); in the data set with Escherichia coli [5], 107 µM (≈ 70.2 µg/mL); in [6] it was 3.8 µM (≈ 2.49 µg/mL). For the same compound, the Activity result in data set [4] is “Not Active”.

Usually EC50 stands for the concentration at which the effect is half-maximal. For `COC(=O)[C@H](CCCNC(=N)N)NC(=O)[C@H](N)Cc1c(C(C)(C)C)[nH]c2c(C(C)(C)C)cc(C(C)(C)C)cc12`, the minimum inhibitory concentration (MIC) was determined as 28 µM (≈ 15.2 µg/mL) against Staphylococcus aureus [1]; 55 µM (≈ 29.9 µg/mL) with Staphylococcus aureus [2]; 92 µM (≈ 49.9 µg/mL) in the data set with Pseudomonas aeruginosa; 28 µM (≈ 15.2 µg/mL) against Staphylococcus aureus [3]; 14 µM (≈ 7.6 µg/mL) in data set [6]. Besides, in data set [7], the EC50 came to 503 µM. Also, the outcome in the data set with Escherichia coli [8] was inactive.

On to `CC(C)(C)c1cc(C(C)(C)C)c2[nH]c(C(C)(C)C)c(C[C@H](N)C(=O)N[C@@H](CCCNC(=N)N)C(N)=O)c2c1`, for which the minimal inhibitory concentration (MIC) was determined as 28 µM (≈ 14.8 µg/mL) against Staphylococcus aureus [1]; 57 µM (≈ 30.1 µg/mL) against Staphylococcus aureus [2]; 57 µM (≈ 30.1 µg/mL) against Pseudomonas aeruginosa; 28 µM (≈ 14.8 µg/mL) with Staphylococcus aureus [3]; 14 µM (≈ 7.39 µg/mL) in data set [6]. In data set [7], the EC50 was 578 µM. Besides, the outcome in the data set on Escherichia coli [8] was inactive.

In general, half-life refers to how long it takes for the measured level to halve. Take `COC(=O)[C@H](CCCNC(=N)N)NC(=O)[C@H](Cc1c(C(C)(C)C)[nH]c2c(C(C)(C)C)cc(C(C)(C)C)cc12)NC(=O)[C@@H](N)CCCNC(=N)N`: the MIC came to 7.2 µM (≈ 5.03 µg/mL) against Staphylococcus aureus [1]; 11 µM (≈ 7.69 µg/mL) against Staphylococcus aureus [2]; 21 µM (≈ 14.7 µg/mL) in the data set with Pseudomonas aeruginosa; 3.6 µM (≈ 2.52 µg/mL) in the data set on Staphylococcus aureus [3]; 32 µg/mL (≈ 45.8 µM) against Escherichia coli [12]; 29 µM (≈ 20.3 µg/mL) against Escherichia coli [5]. In addition, the MIC in data set [6] is 1 µg/mL and 1.4 µM. Also, in the data set on Staphylococcus aureus [9], the CFU/ml stood at 10000. In data set [7], the EC50 turned out to be 1010 µM. For the same compound, the Activity result in the data set with Plasma is “Stable”; in data set [13] it was “Dose-dependent effect”. Also, the result in the data set with Escherichia coli [10] and in the data set on Escherichia coli [11] was Active. Also, in data set [14], the half-life is 2 h.

Regarding `CC(C)(C)c1cc(C(C)(C)C)c2[nH]c(C(C)(C)C)c(C[C@H](NC(=O)[C@@H](N)CCCNC(=N)N)C(=O)N[C@@H](CCCNC(=N)N)C(N)=O)c2c1`, the MIC in the data set with Staphylococcus aureus [1] is 11 µM (≈ 7.52 µg/mL); with Staphylococcus aureus [2] it was 22 µM (≈ 15 µg/mL); in the data set on Pseudomonas aeruginosa, 44 µM (≈ 30.1 µg/mL); against Staphylococcus aureus [3] it was 11 µM (≈ 7.52 µg/mL); in the data set with Escherichia coli [5], 88 µM (≈ 60.2 µg/mL); in data set [6], 3.7 µM (≈ 2.53 µg/mL). Moreover, the Activity result in [4] was “Not Active”.

In the case of `COC(=O)[C@H](CCCNC(=N)N)NC(=O)[C@@H](N)Cc1c(C(C)(C)C)[nH]c2c(C(C)(C)C)cc(C(C)(C)C)cc12`, the MIC with Staphylococcus aureus [1] is 9.2 µM (≈ 4.99 µg/mL); against Staphylococcus aureus [2], 14 µM (≈ 7.6 µg/mL); with Pseudomonas aeruginosa, 55 µM (≈ 29.9 µg/mL); against Staphylococcus aureus [3], 9.2 µM (≈ 4.99 µg/mL); in the data set with Escherichia coli [5] it was 55 µM (≈ 29.9 µg/mL); in [6] it was 4.6 µM (≈ 2.5 µg/mL). The EC50 in [7] is 451 µM.

For the compound `COC(=O)[C@H](CCCNC(=N)N)NC(=O)[C@@H](Cc1c(C(C)(C)C)[nH]c2c(C(C)(C)C)cc(C(C)(C)C)cc12)NC(=O)[C@@H](N)CCCNC(=N)N`, the MIC with Staphylococcus aureus [1] turned out to be 7.2 µM (≈ 5.03 µg/mL); with Staphylococcus aureus [2] it was 21 µM (≈ 14.7 µg/mL); with Pseudomonas aeruginosa it was 57 µM (≈ 39.8 µg/mL); in the data set with Staphylococcus aureus [3] it was 7.2 µM (≈ 5.03 µg/mL); with Escherichia coli [5], 72 µM (≈ 50.3 µg/mL); in data set [6], 3.6 µM (≈ 2.52 µg/mL). Further, the Activity result in data set [4] is on record as “Not Active”.

`CC(C)(C)c1cc(C(C)(C)C)c2[nH]c(C(C)(C)C)c(C[C@H](NC(=O)[C@@H](N)CCCNC(=N)N)C(=O)N[C@@H](CCCNC(=N)N)C(=O)NCc3ccccc3)c2c1`: the MIC was found to be 3.2 µM (≈ 2.48 µg/mL) in the data set on Staphylococcus aureus [1]; 3.2 µM (≈ 2.48 µg/mL) against Staphylococcus aureus [2]; 6.5 µM (≈ 5.03 µg/mL) in the data set with Pseudomonas aeruginosa; 3.2 µM (≈ 2.48 µg/mL) in the data set with Staphylococcus aureus [3]; 9.7 µM (≈ 7.51 µg/mL) with Escherichia coli [5]; 1.3 µM (≈ 1.01 µg/mL) in [6]. Moreover, the EC50 in [7] stood at 116 µM.

Regarding `CC(C)(C)c1cc(C(C)(C)C)c2[nH]c(C(C)(C)C)c(C[C@H](N)C(=O)N[C@@H](CCCNC(=N)N)C(=O)NCc3ccccc3)c2c1`, the MIC in the data set with Staphylococcus aureus [1] stood at 4 µM (≈ 2.47 µg/mL); against Staphylococcus aureus [2], 8.1 µM (≈ 5 µg/mL); with Pseudomonas aeruginosa it was 12 µM (≈ 7.41 µg/mL); in the data set with Staphylococcus aureus [3], 4 µM (≈ 2.47 µg/mL); against Escherichia coli [5], 16 µM (≈ 9.89 µg/mL); in [6], 4 µM (≈ 2.47 µg/mL). Further, the EC50 in data set [7] was 97 µM.
